Data reported in PubChem BioAssay AID1963984 (Molecular Pharmacology Branch, DTP, NCI, 2024).

Test system: 233499-124-R-J3-PDC spheroids with HUVEC/MSC, viability
Assay: Anticancer human tumor 233499-124-R-J3-PDC patient-derived colon adenocarcinoma cell line growth inhibition [PI3K]
Conditions: for IC50: curve of first compound; for viability, T/C: stronger effect = lower value
Method in brief: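 High-throughput combination screen: PI3K inhibitors crossed with targeted small molecules on complex spheroids of tumor cells, HUVEC and MSCs at 37 degrees C, 5% CO2. Top concentration was at or near clinical Cmax (otherwise 10 microM), with half-log decrements.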
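Also: spheroids exposed to agents for seven days before readout.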
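For viability, T/C in this document: percent viability relative to DMSO vehicle control taken as 100%.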

Cn1cnc2c(F)c(Nc3ccc(Br)cc3Cl)c(C(=O)NOCCO)cc21 + COc1c(OCCCN2CCOCC2)ccc2c3n(c(=NC(=O)c4cnc(N)nc4)nc12)CCN3
IC50 (second compound 0.00316 µM): 0.378 µM
IC50 (second compound 0.01 µM): 0.76 µM
IC50 (second compound 0.0316 µM): 0.131 µM
IC50 (second compound 0.1 µM): 0.054 µM
IC50 (second compound 0.316 µM): < 0.00949 µM
IC50 (second compound 1 µM): < 0.00949 µM
viability, T/C (second compound 0.00316 µM, first compound 0.00949 µM): 55.7%
viability, T/C (second compound 0.00316 µM, first compound 0.03 µM): 73.5%
viability, T/C (second compound 0.00316 µM, first compound 0.0949 µM): 76.5%
viability, T/C (second compound 0.00316 µM, first compound 0.3 µM): 54.9%
viability, T/C (second compound 0.00316 µM, first compound 0.949 µM): 31.2%
viability, T/C (second compound 0.00316 µM, first compound 3 µM): 29.5%
viability, T/C (second compound 0.01 µM, first compound 0.00949 µM): 75.2%
viability, T/C (second compound 0.01 µM, first compound 0.03 µM): 80.8%
viability, T/C (second compound 0.01 µM, first compound 0.0949 µM): 75.5%
viability, T/C (second compound 0.01 µM, first compound 0.3 µM): 56%
viability, T/C (second compound 0.01 µM, first compound 0.949 µM): 50.3%
viability, T/C (second compound 0.01 µM, first compound 3 µM): 24.6%
viability, T/C (second compound 0.0316 µM, first compound 0.00949 µM): 68.3%
viability, T/C (second compound 0.0316 µM, first compound 0.03 µM): 78.9%
viability, T/C (second compound 0.0316 µM, first compound 0.0949 µM): 54.1%
viability, T/C (second compound 0.0316 µM, first compound 0.3 µM): 34.2%
viability, T/C (second compound 0.0316 µM, first compound 0.949 µM): 30.4%
viability, T/C (second compound 0.0316 µM, first compound 3 µM): 20.1%
viability, T/C (second compound 0.1 µM, first compound 0.00949 µM): 71.5%
viability, T/C (second compound 0.1 µM, first compound 0.03 µM): 67.5%
viability, T/C (second compound 0.1 µM, first compound 0.0949 µM): 33.1%
viability, T/C (second compound 0.1 µM, first compound 0.3 µM): 28.2%
viability, T/C (second compound 0.1 µM, first compound 0.949 µM): 19.1%
viability, T/C (second compound 0.1 µM, first compound 3 µM): 17.9%
viability, T/C (second compound 0.316 µM, first compound 0.00949 µM): 41.3%
viability, T/C (second compound 0.316 µM, first compound 0.03 µM): 34.2%
viability, T/C (second compound 0.316 µM, first compound 0.0949 µM): 13.1%
viability, T/C (second compound 0.316 µM, first compound 0.3 µM): 10.2%
viability, T/C (second compound 0.316 µM, first compound 0.949 µM): 5.14%
viability, T/C (second compound 0.316 µM, first compound 3 µM): 6.9%
viability, T/C (second compound 1 µM, first compound 0.00949 µM): 2.93%
viability, T/C (second compound 1 µM, first compound 0.03 µM): 7.86%
viability, T/C (second compound 1 µM, first compound 0.0949 µM): 4.9%
viability, T/C (second compound 1 µM, first compound 0.3 µM): 0.96%
viability, T/C (second compound 1 µM, first compound 0.949 µM): 1.18%
viability, T/C (second compound 1 µM, first compound 3 µM): 1.01%
